Tests used:
murine COX-2 [1] = target: T1, murine COX-2 (Mus musculus, UniProt Q05769); assay: Competitive COX inhibition assay, reduced arachidonate; format: biochemical; details: COX-2, 5 μM arachidonate, at the concentration ranges tested
T1 sequence (Q05769 18-604): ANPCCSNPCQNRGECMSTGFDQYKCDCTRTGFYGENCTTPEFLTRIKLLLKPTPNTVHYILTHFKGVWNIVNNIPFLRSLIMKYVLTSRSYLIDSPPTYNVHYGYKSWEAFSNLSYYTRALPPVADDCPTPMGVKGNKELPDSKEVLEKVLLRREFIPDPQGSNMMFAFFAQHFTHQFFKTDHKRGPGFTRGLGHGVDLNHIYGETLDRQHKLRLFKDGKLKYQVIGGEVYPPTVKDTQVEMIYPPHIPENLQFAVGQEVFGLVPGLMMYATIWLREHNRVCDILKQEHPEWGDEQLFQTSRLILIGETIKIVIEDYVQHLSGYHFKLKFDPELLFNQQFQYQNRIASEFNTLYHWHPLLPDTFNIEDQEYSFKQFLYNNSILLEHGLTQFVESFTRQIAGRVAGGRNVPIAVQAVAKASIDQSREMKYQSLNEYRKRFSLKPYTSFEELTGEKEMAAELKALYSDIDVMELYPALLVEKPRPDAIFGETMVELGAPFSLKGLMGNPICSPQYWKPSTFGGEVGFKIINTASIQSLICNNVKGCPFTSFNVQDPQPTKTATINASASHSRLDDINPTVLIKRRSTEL

murine COX-2 [2] = target: T1, murine COX-2; details: COX-2, 50 μM arachidonic acid (saturating)
[3] = Photoisomerization / light stability of E and Z isomers
ovine COX-1 [4] = target: T2, ovine COX-1 (Ovis aries, UniProt P05979); details: COX-1, 50 μM arachidonic acid (saturating)
T2 sequence (P05979 25-600): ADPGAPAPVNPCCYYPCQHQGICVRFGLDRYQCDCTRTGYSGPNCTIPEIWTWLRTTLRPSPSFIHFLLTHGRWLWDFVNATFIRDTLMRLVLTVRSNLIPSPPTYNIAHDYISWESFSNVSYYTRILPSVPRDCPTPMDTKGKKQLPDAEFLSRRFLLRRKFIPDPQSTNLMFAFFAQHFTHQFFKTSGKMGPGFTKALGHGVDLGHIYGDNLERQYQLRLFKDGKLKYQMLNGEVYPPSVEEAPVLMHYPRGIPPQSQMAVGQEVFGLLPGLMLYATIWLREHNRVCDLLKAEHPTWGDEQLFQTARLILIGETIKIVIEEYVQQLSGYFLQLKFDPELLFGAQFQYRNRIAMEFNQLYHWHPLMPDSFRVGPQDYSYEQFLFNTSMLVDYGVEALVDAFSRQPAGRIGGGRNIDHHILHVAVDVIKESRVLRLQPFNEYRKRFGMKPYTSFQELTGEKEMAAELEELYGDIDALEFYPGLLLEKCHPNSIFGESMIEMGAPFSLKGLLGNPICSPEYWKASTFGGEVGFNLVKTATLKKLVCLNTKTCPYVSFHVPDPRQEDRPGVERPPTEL

oCOX-1 = details: wild-type oCOX-1; cited from earlier work
ovine COX-1 [5] = target: T2, ovine COX-1; details: COX-1, 5 μM vs 50 μM arachidonate, data not shown

CSc1ccc(/C=C2\C=C(CC(=O)O)c3cc(F)ccc32)cc1
competitive inhibition (in words) (murine COX-2 [1]): no inhibition
time-dependent inhibition (in words) (murine COX-2 [2]): no time-dependent inhibition
percentage conversion to the Z-isomer ([3]; 370 nm, 24 hours, high-pressure mercury lamp): 1-2%
time-dependent inhibition (in words) (ovine COX-1 [4]): no time-dependent inhibition

CSc1ccc(/C=C2/C=C(CC(=O)O)c3cc(F)ccc32)cc1 [(Z)-2′-des-methyl sulindac sulfide]
behaviour on exposure to natural light ([3]; natural light, during HPLC purification): photoisomerized to the E-isomer

CSc1ccc(/C=C2/C(C)=C(CC(=O)O)c3cc(F)ccc32)cc1 [sulindac sulfide, reference compound]
effect of reduced substrate concentration on ability to inhibit (ovine COX-1 [5]): not significantly affected
photoisomerization (interconversion) ([3]; natural light and ultraviolet conditions): no interconversion was observed
maximal extent (plateau) of inhibition (ovine COX-1 [4]): around 75%
